Source: US11498903B2 (BRISTOL-MYERS SQUIBB COMPANY, priority 2017, dated 2022)
pEC50: −log10 of the molar value. Read-outs that look alike come from different tables or passages of the source.

Target: T1, human APJ receptor (Homo sapiens, UniProt P35414)
T1 construct: expressed in transfected cells
T1 sequence (P35414 1-380): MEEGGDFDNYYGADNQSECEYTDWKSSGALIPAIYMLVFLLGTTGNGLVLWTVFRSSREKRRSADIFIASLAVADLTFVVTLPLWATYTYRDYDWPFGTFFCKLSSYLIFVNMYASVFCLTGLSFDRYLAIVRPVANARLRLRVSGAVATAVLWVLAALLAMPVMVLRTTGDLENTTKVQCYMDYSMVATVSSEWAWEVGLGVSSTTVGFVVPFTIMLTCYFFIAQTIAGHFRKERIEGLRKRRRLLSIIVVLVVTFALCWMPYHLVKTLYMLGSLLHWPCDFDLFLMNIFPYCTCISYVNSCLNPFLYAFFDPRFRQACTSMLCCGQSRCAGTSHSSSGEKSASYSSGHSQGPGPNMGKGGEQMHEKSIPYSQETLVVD
Experiment: Intracellular cAMP accumulation assay (APJ hcAMP, HTRF)
Format: cell-based
Conditions: HEK293 cells stably expressing human APJ receptor
In short: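 HEK293 cells stably expressing human APJ, 5,000/well, incubated 30 min at room temperature with compound plus […] and 2 μM forskolin. cAMP read by HTRF against a cAMP standard curve; EC50 from variable-slope sigmoidal fit, Ymax as % of (Pyr1)apelin-13 inhibition.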

[1] = Table 1, inhibition of forskolin-mediated cAMP production, read-out: APJ hcAMP EC50
[2] = Table 2, read-out: APJ cAMP Human EC50
[3] = Table 3, read-out: APJ cAMP Human EC50

Structure (SMILES)	pEC50 [1]	pEC50 [2]	pEC50 [3]
COc1cccc([C@@H](C)NC(=O)c2ccc(-c3cc(Cl)ccc3-c3nc4ccccc4[nH]3)c(C(=O)O)c2)c1 [Example 74, 2′-(1H-1,3-benzodiazol-2-yl)-5′-chloro-4-{[(1R)-1-(3-methoxyphenyl)ethyl]carbamoyl}-[1,1′-biphenyl]-2-carboxylic acid]	7.00 to 8.00	7.00 to 8.00	–
C[C@@H](NC(=O)c1ccc(-c2cc(Cl)ccc2-c2nc3ccccc3[nH]2)c(C(=O)O)c1)c1ccccc1Cl [Example 75, 2′-(1H-1,3-benzodiazol-2-yl)-5′-chloro-4-{[(1R)-1-(2-chlorophenyl)ethyl]carbamoyl}-[1,1′-biphenyl]-2-carboxylic acid]	7.00 to 8.00	7.00 to 8.00	–
C[C@@H](NC(=O)c1ccc(-c2cc(Cl)ccc2-c2nc3ccccc3[nH]2)c(C(=O)O)c1)c1ccccc1 [Example 76, 2′-(1H-1,3-benzodiazol-2-yl)-5′-chloro-4-{[(1R)-1-phenylethyl]carbamoyl}-[1,1′-biphenyl]-2-carboxylic acid]	7.00 to 8.00	7.00 to 8.00	–
CN(C)C[C@@H](NC(=O)c1ccc(-c2cc(Cl)ccc2-c2nc3ccccc3[nH]2)c(C(=O)O)c1)c1ccccc1 [Example 77, 2′-(1H-1,3-benzodiazol-2-yl)-5′-chloro-4-{[(1S)-2-(dimethylamino)-1-phenylethyl]carbamoyl}-[1,1′-biphenyl]-2-carboxylic acid]	7.00 to 8.00	7.00 to 8.00	–
COC[C@H](Cc1ccccc1)NC(=O)c1ccc(-c2cc(Cl)ccc2-c2nc3ccccc3[nH]2)c(C(=O)O)c1 [Example 78, 2′-(1H-1,3-benzodiazol-2-yl)-5′-chloro-4-{[(2S)-1-methoxy-3-phenylpropan-2-yl]carbamoyl}-[1,1′-biphenyl]-2-carboxylic acid]	6.30 to 7.00	6.30 to 7.00	–
CCCC(NC(=O)c1ccc(-c2c(Cl)cccc2-c2nc3cc(OC)c(F)cc3[nH]2)c(C(=O)O)c1)c1ccccc1 [Example 84, (S)-2′-chloro-6′-(6-fluoro-5-methoxy-1H-1,3-benzodiazol-2-yl)-4-{[(1R)-1-phenylbutyl]carbamoyl}-[1,1′-biphenyl]-2-carboxylic acid]	–	–	> 8.00
CCCC(NC(=O)c1ccc(-c2c(Cl)cccc2-c2ncc(-c3c(F)ccc(F)c3F)[nH]2)c(C(=O)O)c1)c1ccccc1 [Example 100, (S)-2′-chloro-4-{[(1R)-1-phenylbutyl]carbamoyl}-6′-[5-(2,3,6-trifluorophenyl)-1H-imidazol-2-yl]-[1,1′-biphenyl]-2-carboxylic acid]	–	–	> 8.00
CCCC(NC(=O)c1ccc(-c2c(Cl)cccc2-c2ncc(-c3cccnc3)[nH]2)c(C(=O)O)c1)c1ccccc1 [Example 101, (S)-2′-chloro-4-{[(1R)-1-phenylbutyl]carbamoyl}-6′-[5-(pyridin-3-yl)-1H-imidazol-2-yl]-[1,1′-biphenyl]-2-carboxylic acid]	–	–	> 8.00
COc1cc2[nH]c(-c3cccc(Cl)c3-c3ccc(C(=O)NC(C)C)cc3C(=O)O)nc2cc1F [Example 109, (S)-2′-chloro-6′-(5-fluoro-6-methoxy-1H-1,3-benzodiazol-2-yl)-4-[(propan-2-yl)carbamoyl]-[1,1′-biphenyl]-2-carboxylic acid]	7.00 to 8.00	–	7.00 to 8.00
COCCNC(=O)c1ccc(-c2c(Cl)cccc2-c2nc3cc(F)c(OC)cc3[nH]2)c(C(=O)O)c1 [Example 111, (S)-2′-chloro-6′-(5-fluoro-6-methoxy-1H-1,3-benzodiazol-2-yl)-4-[(2-methoxyethyl)carbamoyl]-[1,1′-biphenyl]-2-carboxylic acid]	–	–	> 8.00

The next lines start with the values.

pEC50 [1]	pEC50 [2]	pEC50 [3]	Structure (SMILES)
> 8.00	> 8.00	–	COC[C@@H](NC(=O)c1ccc(-c2ccccc2-c2nc3cc(C(C)(C)C)ccc3[nH]2)c(C(=O)O)c1)c1ccccc1 [Example 65, 2′-(5-tert-butyl-1H-1.3-benzodiazol-2-yl)-4-{[(1S)-2-methoxy-1-phenylethyl]carbamoyl}-[1,1′-biphenyl]-2-carboxylic acid]
7.00 to 8.00	7.00 to 8.00	–	COC[C@@H](NC(=O)c1ccc(-c2ccccc2-c2nc3ccccc3[nH]2)c(C(=O)O)c1)c1ccccc1 [Example 66, 2′-(1H-1,3-benzodiazol-2-yl)-4-{[(1S)-2-methoxy-1-phenylethyl]carbamoyl}-[1,1′-biphenyl]-2-carboxylic acid]
> 8.00	> 8.00	–	CCC[C@@H](NC(=O)c1cc(C(=O)O)c(-c2cc(Cl)ccc2-c2nc3cc(OC)ccc3[nH]2)cc1C)c1ccccc1 [Example 67, 5′-chloro-2′-(5-methoxy-1H-1,3-benzodiazol-2-yl)-5-methyl-4-{[(1R)-1-phenylbutyl]carbamoyl}-[1,1′-biphenyl]-2-carboxylic acid]
> 8.00	> 8.00	–	CCC[C@@H](NC(=O)c1cc(C(=O)O)c(-c2cc(Cl)ccc2-c2nc3cc(C(C)(C)C)ccc3[nH]2)cc1C)c1ccccc1 [Example 68, 2,-(5-tert-butyl-1H-1,3-benzodiazol-2-yl)-5′-chloro-5-methyl-4-{[(1R)-1-phenylbutyl]carbamoyl}-[1,1′-biphenyl]-2-carboxylic acid]
> 8.00	> 8.00	–	COC[C@@H](NC(=O)c1ccc(-c2cc(Cl)ccc2-c2nc3ccccc3[nH]2)c(C(=O)O)c1)c1ccccc1 [Example 69, 2′-(1H-1,3-benzodiazol-2-yl)-5′-chloro-4-{[(1S)-2-methoxy-1-phenylethyl]carbamoyl}-[1,1′-biphenyl]-2-carboxylic acid]
> 8.00	> 8.00	–	COc1ccccc1[C@@H](C)NC(=O)c1ccc(-c2cc(Cl)ccc2-c2nc3ccccc3[nH]2)c(C(=O)O)c1 [Example 70, 2′-(1H-1,3-benzodiazol-2-yl)-5′-chloro-4-{[(1R)-1-(2-methoxyphenyl)ethyl]carbamoyl}-[1,1′-biphenyl]-2-carboxylic acid]
7.00 to 8.00	7.00 to 8.00	–	CCC[C@H](NC(=O)c1ccc(-c2cc(Cl)ccc2-c2nc3ccccc3[nH]2)c(C(=O)O)c1)c1ccccc1 [Example 71, 2′-(1H-1,3-benzodiazol-2-yl)-5′-chloro-4-{[(1S)-1-phenylbutyl]carbamoyl}-[1,1′-biphenyl]-2-carboxylic acid]
7.00 to 8.00	7.00 to 8.00	–	C[C@@H](NC(=O)c1ccc(-c2cc(Cl)ccc2-c2nc3ccccc3[nH]2)c(C(=O)O)c1)c1cccc(Cl)c1 [Example 72, 2′-(1H-1,3-benzodiazol-2-yl)-5′-chloro-4-{[(1R)-1-(3-chlorophenyl)ethyl]carbamoyl}-[1,1′-biphenyl]-2-carboxylic acid]
7.00 to 8.00	7.00 to 8.00	–	C[C@@H](NC(=O)c1ccc(-c2cc(Cl)ccc2-c2nc3ccccc3[nH]2)c(C(=O)O)c1)c1cccc2ccccc12 [Example 73, 2′-(1H-1,3-benzodiazol-2-yl)-5′-chloro-4-{[(1R)-1-(naphthalen-1-yl)ethyl]carbamoyl}-[1,1′-biphenyl]-2-carboxylic acid]
> 8.00	> 8.00	–	COC[C@@H](NC(=O)c1ccc(-c2cc(Cl)ccc2-c2nc3cc(Cl)ccc3[nH]2)c(C(=O)O)c1)c1ccccc1 [Example 79, 5′-chloro-2′-(5-chloro-1H-1,3-benzodiazol-2-yl)-4-{[(1S)-2-methoxy-1-phenylethyl]carbamoyl}-[1,1′-biphenyl]-2-carboxylic acid]
> 8.00	> 8.00	–	COC[C@@H](NC(=O)c1ccc(-c2cc(Cl)ccc2-c2nc3cc(C(C)(C)C)ccc3[nH]2)c(C(=O)O)c1)c1ccccc1 [Example 80, 2′-(5-tert-butyl-1H-1,3-benzodiazol-2-yl)-5′-chloro-4-{[(1S)-2-methoxy-1-phenylethyl]carbamoyl}-[1,1′-biphenyl]-2-carboxylic acid]
> 8.00	–	> 8.00	CCCC(NC(=O)c1ccc(-c2c(Cl)cccc2-c2nc3cc(OC)c(OC)cc3[nH]2)c(C(=O)O)c1)c1ccccc1 [Example 93, (S)-2′-chloro-6′-(5,6-dimethoxy-1H-1,3-benzodiazol-2-yl)-4-{[(1R)-1-phenylbutyl]carbamoyl}-[1,1′-biphenyl]-2-carboxylic acid]
> 8.00	–	> 8.00	COc1cc2[nH]c(-c3cccc(Cl)c3-c3ccc(C(=O)N4CCC(c5ccccc5)CC4)cc3C(=O)O)nc2cc1F [Example 110, (S)-2′-chloro-6′-(5-fluoro-6-methoxy-1H-1,3-benzodiazol-2-yl)-4-(4-phenylpiperidine-1-carbonyl)-[1,1′-biphenyl]-2-carboxylic acid]
> 8.00	–	> 8.00	COc1cc2[nH]c(-c3cccc(Cl)c3-c3ccc(C(=O)NCCc4ccccc4)cc3C(=O)O)nc2cc1F [Example 112, (S)-2′-chloro-6′-(5-fluoro-6-methoxy-1H-1,3-benzodiazol-2-yl)-4-[(2-phenylethyl)carbamoyl]-[1,1′-biphenyl]-2-carboxylic acid]
> 8.00	–	> 8.00	COc1cc2[nH]c(-c3cccc(Cl)c3-c3ccc(C(=O)N4CCc5ccccc5C4)cc3C(=O)O)nc2cc1F [Example 113, (S)-2′-chloro-6′-(5-fluoro-6-methoxy-1H-1,3-benzodiazol-2-yl)-4-(1,2,3,4-tetrahydroisoquinoline-2-carbonyl)-[1,1′-biphenyl]-2-carboxylic acid]
